This note sets out measurements from PubChem BioAssay (NCI).

Molecules are shown by their SMILES.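 Results reflect a 48-hour exposure of cells in 96-well plates to compound at five concentrations. The concentration for 50% growth inhibition is given as GI50. At the TGI there is no net growth.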 Where only a bound is given, the exact number is not on record here.

Among the test systems are BT-549 breast; CAKI-1 renal; HS 578T breast; MDA-MB-435; RXF 393 renal; SK-MEL-2 melanoma; SK-OV-3 ovarian; SR leukemia; TK-10 renal; UACC-257 melanoma.
Experiment in all cases: NCI-60 cell line screen, 48 h

With `COc1ccc(/C=C(/c2ccccc2)[N+](=O)[O-])c(OC)c1`, the GI50 was 1.48 µM in the experiment with BT-549 breast; 1.23 µM in the experiment on CAKI-1 renal; 2.2 µM in the experiment with HS 578T breast; 1.45 µM in the experiment on MDA-MB-435; 1.53 µM in the experiment on RXF 393 renal; 1.91 µM with SK-MEL-2 melanoma. Besides, the GI50 in the experiment with SK-OV-3 ovarian was 3.1 µM; in the experiment on SR leukemia, 0.641 µM; with TK-10 renal it was 2.24 µM; in the experiment with UACC-257 melanoma, 1.55 µM. The TGI in the experiment on BT-549 breast was determined as 2.89 µM; in the experiment with CAKI-1 renal, 2.64 µM; with HS 578T breast it was 6.65 µM; with MDA-MB-435 it was 2.97 µM; with RXF 393 renal it was 3.03 µM; in the experiment on SK-MEL-2 melanoma, 5.28 µM. Besides, the TGI is 9.57 µM in the experiment on SK-OV-3 ovarian, 16.2 µM in the experiment on SR leukemia, 4.18 µM with TK-10 renal and 3.38 µM in the experiment on UACC-257 melanoma.
Consider `O=C1CCc2c(sc3[nH]c(=S)n(-c4cc(C(F)(F)F)cc(C(F)(F)F)c4)c(=O)c23)C1`, for which the GI50 in the experiment on BT-549 breast was 0.325 µM; in the experiment with CAKI-1 renal it was 0.377 µM; in the experiment on HS 578T breast, 0.339 µM; in the experiment with MDA-MB-435, 1.22 µM; in the experiment on RXF 393 renal, 0.392 µM; in the experiment with SK-MEL-2 melanoma, 0.721 µM. Besides, the GI50 with SK-OV-3 ovarian is 0.947 µM; in the experiment with SR leukemia it was 0.516 µM; with TK-10 renal it was 0.874 µM; in the experiment with UACC-257 melanoma, 0.725 µM. The TGI in the experiment with BT-549 breast came to 1.99 µM; in the experiment with CAKI-1 renal, 4.54 µM; with HS 578T breast it was 16.4 µM; with MDA-MB-435, 5.45 µM; with RXF 393 renal, 5.16 µM; with SK-MEL-2 melanoma it was 3.74 µM. Also, the TGI in the experiment on SK-OV-3 ovarian was 5.54 µM; with SR leukemia it was more than 100 µM; with TK-10 renal, more than 44.1 µM; in the experiment with UACC-257 melanoma, 4.6 µM.
In the case of `COC(=O)c1cc(-c2ccccc2)[nH]c1N/N=C/c1c(Cl)cccc1Cl`, the GI50 in the experiment with BT-549 breast was 0.466 µM; in the experiment on CAKI-1 renal, 0.354 µM; in the experiment on HS 578T breast it was 0.221 µM; in the experiment with MDA-MB-435, 0.0311 µM; in the experiment on RXF 393 renal, 0.616 µM; in the experiment on SK-MEL-2 melanoma, 0.615 µM. Besides, the GI50 in the experiment on SK-OV-3 ovarian is 0.39 µM; with SR leukemia, 0.429 µM; with TK-10 renal, 0.392 µM; with UACC-257 melanoma, 3.58 µM. For the same compound, the TGI with BT-549 breast was found to be 6.69 µM; in the experiment on CAKI-1 renal, 4.39 µM; in the experiment on HS 578T breast, 3.5 µM; with MDA-MB-435, 0.119 µM; with RXF 393 renal, 52 µM; with SK-MEL-2 melanoma it was 17.2 µM. The TGI in the experiment with SK-OV-3 ovarian was 3.26 µM; in the experiment on SR leukemia, more than 100 µM; in the experiment on TK-10 renal it was 2.4 µM; in the experiment on UACC-257 melanoma it was 41.3 µM.
As for `Nc1ccn(C2CC(F)C(CO)O2)c(=O)n1` (stereo not given), the GI50 in the experiment on BT-549 breast, in the experiment on CAKI-1 renal, in the experiment on HS 578T breast, with MDA-MB-435, in the experiment on RXF 393 renal and in the experiment with SK-MEL-2 melanoma was more than 100 µM in each case. Further, the GI50 in the experiment on SK-OV-3 ovarian, in the experiment with SR leukemia, in the experiment on TK-10 renal and with UACC-257 melanoma was more than 100 µM in each case. Further, the TGI in the experiment on BT-549 breast, with CAKI-1 renal, with HS 578T breast, with MDA-MB-435, in the experiment with RXF 393 renal and in the experiment on SK-MEL-2 melanoma was more than 100 µM throughout. The TGI with SK-OV-3 ovarian, in the experiment with SR leukemia, in the experiment on TK-10 renal and in the experiment with UACC-257 melanoma was more than 100 µM throughout.
Regarding `CCCCNNC(=O)c1ccc(Br)cc1`, the GI50 with BT-549 breast was 17 µM; with CAKI-1 renal it was 2.88 µM; in the experiment with HS 578T breast, 4.27 µM; with MDA-MB-435, 2.21 µM; in the experiment on RXF 393 renal, 4.53 µM; with SK-MEL-2 melanoma it was 1.83 µM. For the same compound, the GI50 in the experiment with SK-OV-3 ovarian is 8.54 µM; with SR leukemia, 2.76 µM; in the experiment with TK-10 renal it was 1.31 µM; in the experiment on UACC-257 melanoma it was 0.639 µM. The TGI in the experiment with BT-549 breast is more than 50 µM; with CAKI-1 renal, more than 27 µM; in the experiment on HS 578T breast, more than 50 µM; with MDA-MB-435 it was more than 50 µM; with RXF 393 renal, 30.4 µM; with SK-MEL-2 melanoma, more than 39.9 µM. Moreover, the TGI in the experiment with SK-OV-3 ovarian is more than 50 µM; in the experiment with SR leukemia it was more than 50 µM; in the experiment with TK-10 renal, 12.2 µM; in the experiment on UACC-257 melanoma, 7.34 µM.
Consider `[2H]C([2H])([2H])NC(=O)c1nnc(NC(=O)C2CC2)cc1Nc1cccc(-c2ncn(C)n2)c1OC`, for which the GI50 in the experiment with BT-549 breast was 23.2 µM; in the experiment on CAKI-1 renal, 4.52 µM; with HS 578T breast, 14.7 µM; in the experiment with MDA-MB-435, 56.7 µM; in the experiment on RXF 393 renal it was 6.04 µM; in the experiment with SK-MEL-2 melanoma, 10.6 µM. For the same compound, the GI50 in the experiment with SK-OV-3 ovarian was 5.02 µM; with SR leukemia, 16.9 µM; with TK-10 renal, 8.28 µM; with UACC-257 melanoma it was more than 100 µM. Also, the TGI in the experiment with BT-549 breast is more than 100 µM; with CAKI-1 renal, 71.6 µM; in the experiment with HS 578T breast, more than 100 µM; with MDA-MB-435 it was more than 100 µM; in the experiment with RXF 393 renal it was more than 100 µM; with SK-MEL-2 melanoma, 83.8 µM. Besides, the TGI is 48.9 µM in the experiment with SK-OV-3 ovarian, more than 100 µM in the experiment on SR leukemia, more than 100 µM with TK-10 renal and more than 100 µM with UACC-257 melanoma.
For `CN(C)c1ccc(Nc2c3ccccc3nc3ccccc23)cc1`, the GI50 with BT-549 breast is 1.71 µM; in the experiment on CAKI-1 renal, 0.486 µM; in the experiment on HS 578T breast, 1.65 µM; with MDA-MB-435 it was 0.685 µM; with RXF 393 renal, 1.21 µM; in the experiment on SK-MEL-2 melanoma, 0.821 µM. Moreover, the GI50 is 1.27 µM in the experiment with SK-OV-3 ovarian, 0.297 µM in the experiment with SR leukemia, 0.937 µM in the experiment with TK-10 renal and 0.987 µM in the experiment with UACC-257 melanoma. Further, the TGI is 8.19 µM in the experiment with BT-549 breast; 2.33 µM in the experiment on CAKI-1 renal; 9.47 µM in the experiment on HS 578T breast; 2.33 µM with MDA-MB-435; 2.61 µM in the experiment on RXF 393 renal; 2.83 µM in the experiment on SK-MEL-2 melanoma. Moreover, the TGI with SK-OV-3 ovarian amounted to 3.77 µM; in the experiment with SR leukemia, 1.35 µM; in the experiment with TK-10 renal, 4.19 µM; in the experiment with UACC-257 melanoma it was 2.65 µM.
On to `OC1(c2ccccc2)C2CC=CC2C1(c1ccccc1)c1ccccc1` (stereo not given), for which the TGI in the experiment with BT-549 breast is more than 100 µM; with CAKI-1 renal, 60.1 µM; in the experiment on HS 578T breast it was more than 100 µM; in the experiment on MDA-MB-435 it was 62.1 µM; with RXF 393 renal, 46.3 µM; in the experiment on SK-MEL-2 melanoma it was 27.5 µM. Further, the TGI was more than 100 µM in the experiment with SK-OV-3 ovarian, more than 100 µM with SR leukemia, more than 100 µM in the experiment on TK-10 renal and 81.4 µM in the experiment on UACC-257 melanoma.
